For experiment [1], the target named is T1, human JAK1 (a.a. 837-1142) (Homo sapiens, UniProt P23458).
T1 construct: human JAK1 (a.a. 837-1142); His tag (N); made in house; host or cells: insect cells (baculovirus)
The experiment is described as follows: In vitro JAK kinase assay (HTRF, phosphorylation of a biotinylated peptide), JAK1. Type of experiment: biochemical. Here is the method:
(§1) Compounds herein were tested for inhibitory activity of JAK targets according to the following in vitro assay described in Park et al., Analytical Biochemistry 1999, 269, 94-104. The catalytic domains of human JAK1 (a.a. 837-1142), Jak2 (a.a. 828-1132) and Jak3 (a.a. 781-1124) with an N-terminal His tag were expressed using baculovirus in insect cells and purified. The catalytic activity of JAK1, JAK2 or JAK3 was assayed by measuring the phosphorylation of a biotinylated peptide. The phosphorylated peptide was detected by homogenous time resolved fluorescence (HTRF). IC50s of compounds were measured for each kinase in the 40 microL reactions that contain the enzyme, ATP and 500 nM peptide in 50 mM Tris (pH 7.8) buffer with 100 mM NaCl, 5 mM DTT, and 0.1 mg/mL (0.01%) BSA. The ATP concentration in the reactions was 90 μM for Jak1, 30 μM for Jak2 and 3 μM for Jak3 for Km conditions. For the 1 mM IC50 measurements, ATP concentration in the reactions was 1 mM. Reactions were carried out at RT for 1 h and then stopped with 20 μL 45 mM EDTA, 300 nM SA-APC, 6 nM Eu-Py20 in assay buffer (Perkin Elmer, Boston, Mass.). Binding to the Europium labeled antibody took place for 40 min and HTRF signal was measured on a Fusion plate reader (Perkin Elmer, Boston, Mass.).
(§2) Compounds herein were tested for inhibitory activity of JAK1 and JAK2 targets according to the assay of Example A (experiments run at Km or 1 mM as indicated). The symbol “+” indicates an IC50<50 nM; the symbol “++” indicates an IC50≧50 and ≦100 nM; and the symbol “+++” indicates an IC50>100 and ≦500 nM.

The target in another experiment is T2, Jak2 (a.a. 828-1132) (Homo sapiens, UniProt O60674).
T2 construct: Jak2 (a.a. 828-1132); His tag (N); made in house; host or cells: insect cells (baculovirus)
The experiment is described as follows: In vitro JAK kinase assay (HTRF, phosphorylation of a biotinylated peptide), JAK2, reported as JAK2/JAK1 ratio. The experiment is classed as biochemical. The protocol: as §1, §2

Where [2] appears, read: Assay Conditions Km (ATP 90 μM for Jak1).
[3] abbreviates: Assay Conditions Km (ATP 90 μM for Jak1, 30 μM for Jak2).

The structures appear in SMILES notation. Structures can show the parent of a compound that is named as a salt.

T1 sequence (P23458 849-1154): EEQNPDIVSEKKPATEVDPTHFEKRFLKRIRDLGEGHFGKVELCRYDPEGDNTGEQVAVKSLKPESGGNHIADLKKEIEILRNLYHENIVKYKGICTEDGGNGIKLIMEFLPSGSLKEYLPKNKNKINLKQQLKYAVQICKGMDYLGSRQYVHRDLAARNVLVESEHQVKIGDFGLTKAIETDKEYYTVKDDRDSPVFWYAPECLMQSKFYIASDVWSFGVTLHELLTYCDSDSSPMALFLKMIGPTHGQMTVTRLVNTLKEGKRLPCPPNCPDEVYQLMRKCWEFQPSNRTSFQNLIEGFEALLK
T2 sequence (O60674 828-1132): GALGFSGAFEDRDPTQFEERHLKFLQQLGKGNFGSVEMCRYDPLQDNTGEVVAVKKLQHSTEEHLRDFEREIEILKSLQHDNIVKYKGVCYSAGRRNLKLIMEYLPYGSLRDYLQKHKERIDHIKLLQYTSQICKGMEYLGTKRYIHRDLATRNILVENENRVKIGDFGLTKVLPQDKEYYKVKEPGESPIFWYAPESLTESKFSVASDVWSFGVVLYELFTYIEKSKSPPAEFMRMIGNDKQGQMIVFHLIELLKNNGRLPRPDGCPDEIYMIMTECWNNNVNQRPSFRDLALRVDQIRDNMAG

Compound `N#CC[C@@H]([C@H]1CCN(c2scc(C#N)c2C#N)C1)n1cc(-c2ncnc3[nH]ccc23)cn1` [Example 79, 2-((3S)-3-{(1S)-2-cyano-1-[4-(7H-pyrrolo[2,3-d]pyrimidin-4-yl)-1H-pyrazol-1-yl]ethyl}pyrrolidin-1-yl)thiophene-3,4-dicarbonitrile] returned an IC50 in experiment [1] (Assay Conditions 1 mM ATP) of less than 50 nM. Also, the “JAK2/JAK1 IC50 ratio” value on Jak2 (a.a. 828-1132) (Assay Conditions 1 mM ATP) stood at 20.0.
Taken in the same sequence, the figures for `N#CC[C@@H]([C@H]1CCN(c2nc(Cl)c(F)cc2N)C1)n1cc(-c2ncnc3[nH]ccc23)cn1.O=C(O)C(F)(F)F.O=C(O)C(F)(F)F` [Example 91B, (3S)-3-[(3S)-1-(3-amino-6-chloro-5-fluoropyridin-2-yl)pyrrolidin-3-yl]-3-[4-(7H-pyrrolo[2,3-d]pyrimidin-4-yl)-1H-pyrazol-1-yl]propanenitrile bis(trifluoroacetate)] were less than 50 nM and 7.0.
Regarding `N#CCC(C1CCN(c2ccc3cccc(Cl)c3n2)C1)n1cc(-c2ncnc3[nH]ccc23)cn1` (racemic) [Example 42, ±3-[1-(8-chloroquinolin-2-yl)pyrrolidin-3-yl]-3-[4-(7H-pyrrolo[2,3-d]pyrimidin-4-yl)-1H-pyrazol-1-yl]propanenitrile], in experiment [1] (setting [2]), the IC50 is less than 50 nM. Also, on Jak2 (a.a. 828-1132) (setting [3]), the “JAK2/JAK1 IC50 ratio” value was 6.0.
In experiment [1] (Assay Conditions 1 mM ATP), `N#CCC(C1CCN(c2ncc3ccsc3c2C#N)C1)n1ccc(-c2ncnc3[nH]ccc23)c1` (racemic) [Example 176-rac, 6-(3-{2-cyano-1-[3-(7H-pyrrolo[2,3-d]pyrimidin-4-yl)-1H-pyrrol-1-yl]ethyl}pyrrolidin-1-yl)thieno[3,2-c]pyridine-7-carbonitrile] displayed an IC50 of less than 50 nM. The “JAK2/JAK1 IC50 ratio” value on Jak2 (a.a. 828-1132) (Assay Conditions 1 mM ATP) was determined as 53.3.
In the same order, the values of `N#CCC(C1CCN(c2scc(C#N)c2C#N)C1)n1ccc(-c2ncnc3[nH]ccc23)c1` (single isomer, unassigned) [81 enantiomer 2] are less than 50 nM and 8.1.
Taken in the same sequence, the figures for `N#CCC(C1CCN(c2ccnc(C(=O)Nc3ccccc3)c2)C1)n1cc(-c2ncnc3[nH]ccc23)cn1` (single isomer, unassigned) [Example 154, 4-(3-{2-cyano-1-[4-(7H-pyrrolo[2,3-d]pyrimidin-4-yl)-1H-pyrazol-1-yl]ethyl}pyrrolidin-1-yl)-N-phenylpyridine-2-carboxamide] were less than 50 nM and more than 11.8.
In the same order, the values of `N#CCC(C1CCN(c2ccc3c(n2)C(F)(F)CC3)C1)n1cc(-c2ncnc3[nH]ccc23)cn1` (single isomer, unassigned) [Example 157, 3-[1-(7,7-difluoro-6,7-dihydro-5H-cyclopenta[b]pyridin-2-yl)pyrrolidin-3-yl]-3-[4-(7H-pyrrolo[2,3-d]pyrimidin-4-yl)-1H-pyrazol-1-yl]propanenitrile bis(trifluoroacetate)] are less than 50 nM and more than 5.3.
For the compound `N#CCC(C1CCN(c2ccc3c(n2)[S+]([O-])CC3)C1)n1cc(-c2ncnc3[nH]ccc23)cn1` (single isomer, unassigned) [Example 28, 3-[1-(1-oxido-2,3-dihydrothieno[2,3-b]pyridin-6-yl)pyrrolidin-3-yl]-3-[4-(7H-pyrrolo[2,3-d]pyrimidin-4-yl)-1H-pyrazol-1-yl]propanenitrile], in experiment [1] (Assay Conditions 1 mM ATP), the IC50 is less than 50 nM. Also, the “JAK2/JAK1 IC50 ratio” value on Jak2 (a.a. 828-1132) (Assay Conditions 1 mM ATP) worked out at 4.
In the same order, the values of `N#CC[C@@H]([C@H]1CCN(c2scc(Cl)c2C#N)C1)n1cc(-c2ncnc3[nH]ccc23)cn1` [Example 78, 4-chloro-2-((3S)-3-{(1S)-2-cyano-1-[4-(7H-pyrrolo[2,3-d]pyrimidin-4-yl)-1H-pyrazol-1-yl]ethyl}pyrrolidin-1-yl)thiophene-3-carbonitrile] are less than 50 nM and 32.1.
In the same order, the values of `C[S+]([O-])c1nccc(N2CCC(C(CC#N)n3cc(-c4ncnc5[nH]ccc45)cn3)C2)n1` (single isomer, unassigned) [Example 24, 3-{1-[2-(methylsulfinyl)pyrimidin-4-yl]pyrrolidin-3-yl}-3-[4-(7H-pyrrolo[2,3-d]pyrimidin-4-yl)-1H-pyrazol-1-yl]propanenitrile] are less than 50 nM and 2.5.
As for `N#CCC(C1CCN(c2cccc(Cl)n2)C1)n1cc(-c2ncnc3[nH]ccc23)cn1` (single isomer, unassigned) [2, Step 2b], the IC50 in experiment [1] (setting [2]) was less than 50 nM. On Jak2 (a.a. 828-1132) (setting [3]), the “JAK2/JAK1 IC50 ratio” value is given as 3.7.
`N#CCC(C1CCN(c2nc3cc(F)ccc3o2)C1)n1cc(-c2ncnc3[nH]ccc23)cn1` (single isomer, unassigned) [Example 19, 3-[1-(5-fluoro-1,3-benzoxazol-2-yl)pyrrolidin-3-yl]-3-[4-(7H-pyrrolo[2,3-d]pyrimidin-4-yl)-1H-pyrazol-1-yl]propanenitrile] came in with an IC50 in experiment [1] (Assay Conditions 1 mM ATP) of less than 50 nM. Moreover, on Jak2 (a.a. 828-1132) (Assay Conditions 1 mM ATP), the “JAK2/JAK1 IC50 ratio” value is reported as 5.3.
Taken in the same sequence, the figures for `CCc1cnc(N2CC[C@H]([C@H](CC#N)n3cc(-c4ncnc5[nH]ccc45)cn3)C2)c(C#N)n1` [Example 144, 3-((3S)-3-{(1S)-2-cyano-1-[4-(7H-pyrrolo[2,3-d]pyrimidin-4-yl)-1H-pyrazol-1-yl]ethyl}pyrrolidin-1-yl)-6-ethylpyrazine-2-carbonitrile trifluoroacetate] were less than 50 nM and more than 6.9.
Taken in the same sequence, the figures for `CNC(=O)c1cc(N2CCC(C(CC#N)n3cc(-c4ncnc5[nH]ccc45)cn3)C2)ccn1` (single isomer, unassigned) [Example 152, 4-(3-{2-cyano-1-[4-(7H-pyrrolo[2,3-d]pyrimidin-4-yl)-1H-pyrazol-1-yl]ethyl}pyrrolidin-1-yl)-N-methylpyridine-2-carboxamide] were less than 50 nM and 6.7.
Taken in the same sequence, the figures for `N#CC[C@@H]([C@H]1CCN(c2cncc(Cl)c2C#N)C1)n1cc(-c2ncnc3[nH]ccc23)cn1` [Example 64, 3-chloro-5-((3S)-3-{(1S)-2-cyano-1-[4-(7H-pyrrolo[2,3-d]pyrimidin-4-yl)-1H-pyrazol-1-yl]ethyl}pyrrolidin-1-yl) isonicotinonitrile trifluoroacetate salt] were less than 50 nM and 11.
As to `N#Cc1ncsc1N1CC[C@H](C(CF)n2cc(-c3ncnc4[nH]ccc34)cn2)C1` (stereo partly drawn) [Example 126, 5-((3S)-3-{2-fluoro-1-[4-(7H-pyrrolo[2,3-d]pyrimidin-4-yl)-1H-pyrazol-1-yl]ethyl}pyrrolidin-1-yl)-1,3-thiazole-4-carbonitrile trifluoroacetate], in experiment [1] (Assay Conditions 1 mM ATP), the IC50 is less than 50 nM. The “JAK2/JAK1 IC50 ratio” value on Jak2 (a.a. 828-1132) (Assay Conditions 1 mM ATP) amounted to 5.9.
In the same order, the values of `N#CC[C@@H]([C@H]1CCN(c2ccc(Cl)nc2Cl)C1)n1cc(-c2ncnc3[nH]ccc23)cn1` [Example 125, (3S)-3-[(3S)-1-(2,6-dichloropyridin-3-yl)pyrrolidin-3-yl]-3-[4-(7H-pyrrolo[2,3-d]pyrimidin-4-yl)-1H-pyrazol-1-yl]propanenitrile trifluoroacetate] are less than 50 nM and 132.5.
Taken in the same sequence, the figures for `N#CCC(C1CCN(c2ccc3c(n2)SCC3)C1)n1cc(-c2ncnc3[nH]ccc23)cn1` (single isomer, unassigned) [Example 29, 3-[1-(2,3-dihydrothieno[2,3-b]pyridin-6-yl)pyrrolidin-3-yl]-3-[4-(7H-pyrrolo[2,3-d]pyrimidin-4-yl)-1H-pyrazol-1-yl]propanenitrile] were less than 50 nM and 12.
Taken in the same sequence, the figures for `N#CC[C@@H]([C@H]1CCN(c2ncc(Br)nc2C#N)C1)n1cc(-c2ncnc3[nH]ccc23)cn1` [Example 142, 6-bromo-3-(3S)-3-{(1S)-2-cyano-1-[4-(7H-pyrrolo[2,3-d]pyrimidin-4-yl)-1H-pyrazol-1-yl]ethyl}pyrrolidin-1-yl)pyrazine-2-carbonitrile trifluoroacetate] were less than 50 nM and 14.2.
`N#CCC(C1CCN(c2nccc(C#N)c2Cl)C1)n1cc(-c2ncnc3[nH]ccc23)cn1` (racemic) [Example 38, ±3-chloro-2-(3-{2-cyano-1-[4-(7H-pyrrolo[2,3-d]pyrimidin-4-yl)-1H-pyrazol-1-yl]ethyl}pyrrolidin-1-yl)isonicotinonitrile trifluoroacetate] registered an IC50 in experiment [1] (Assay Conditions 1 mM ATP) of 50 to 100 nM. The “JAK2/JAK1 IC50 ratio” value at Jak2 (a.a. 828-1132) (Assay Conditions 1 mM ATP) turned out to be 3.3.
For the compound `N#CCC(C1CCN(c2nc3cc(F)cnc3o2)C1)n1cc(-c2ncnc3[nH]ccc23)cn1` (single isomer, unassigned) [Example 15, 3-[1-(6-fluoro[1,3]oxazolo[5,4-b]pyridin-2-yl)pyrrolidin-3-yl]-3-[4-(7H-pyrrolo[2,3-d]pyrimidin-4-yl)-1H-pyrazol-1-yl]propanenitrile], the IC50 in experiment [1] (setting [2]) was less than 50 nM. Besides, the “JAK2/JAK1 IC50 ratio” value at Jak2 (a.a. 828-1132) (setting [3]) turned out to be 6.8.
